Reference: patent US8143192B2, “Methods for increasing the resistance of plants to hypoxic conditions” (Bayer Cropscience N.V., priority 2005, dated 2012)
Read-outs that look alike come from different tables or passages of the source.

Assays:
[1] = test system: Arabidopsis thaliana cv. C24 plants; test: Depth of Arabidopsis root growth in growth medium after application of 6-chloronicotinic acid (6-CNA); format: in vivo; conditions: for Root depth, mean: after three weeks, untreated mean 2.031034
Experimental: Sterilization of Arabidopsis seeds: 2 min.
Low light overnight to 24 hours.
Plants are grown at 23° C. 30-50 μEinstein s^−1m^−2. 12 hours light-12 hours dark. (See FIG. 1)

[2] = test system: Arabidopsis thaliana cv. C24 plants; conditions: 0.7% Difco agar; for Root depth, mean: after three weeks, untreated mean 1.9475, *p < 0.01
Experimental: A container (1) with a seal (2) is filled with a transparent or translucent growth medium (3), such as 0.4% agar-water or 0.7% agar-water, to which additional test-compounds may be added. One pregerminated seed is added to the tube and allowed to grow for three weeks. After three weeks of growth in vertical position, the root depth (5) of the plant (4) is measured from the top of the medium to the lowest point of the roots.
Germination medium: Half concentrated Murashige and Skoog salts; B5 vitamins; 1.5% sucrose; pH 5.8; 0.4% Difco agar.
Sterilization of Arabidopsis seeds: 2 min. 70% ethanol; 10 min. bleach (6% active chlorine)+1 drop Tween 20 for 20 ml solution; wash 5 times with sterile tap water; sterilization is done in 2 ml eppendorf tubes. Arabidopsis seeds sink to the bottom of the tube, allowing removal of the liquids by means of a 1 ml pipetman.
Pregermination of seeds: In 9 cm Optilux Petridishes (Falcon) containing 10 ml sterile tap water. Low light overnight to 24 hours.
Growing of Arabidopsis plants: Seeds are sown in 25×150 mm glass tubes (Sigma C5916) with natural (transparent) colored closure (Sigma C5791) containing ±34 ml germination medium: 1 seed/tube. The tubes are put in the two outer rows of tube holders for 40 tubes (VWR nalg5970-0025) wrapped in aluminium foil so that the roots can grow in the dark. Plants are grown at 23° C. 30-50 μEinstein s^−1m^−2. 12 hours light-12 hours dark.
After three weeks, the root depth is measured from the surface of the medium to the lowest point of root growth.

Compound	Root depth, mean ([1]; 1 mg/L 6-CNA in germination medium, *p < 0.01) [mm]	Root depth, mean ([1]; 5 mg/L 6-CNA in germination medium, **p < 0.05) [mm]	Root protrusion into growth medium compared to non-treated plants ([1]; 1 and 5 mg/l 6-CNA, three weeks)	Root depth, mean ([2]; 50 mg/L imidacloprid in germination medium) [mm]	Root depth, mean ([2]; 100 mg/L imidacloprid in germination medium) [mm]	Root protrusion into growth medium compared to non-treated plants ([2]; 50 and 100 mg/l imidacloprid, three weeks)
O=C(O)c1ccc(Cl)nc1 [6-CNA, 6-chloronicotinic acid]	2.18	2.118	protruded deeper in the growth medium			
O=[N+]([O-])/N=C1\NCCN1Cc1ccc(Cl)nc1 [imidacloprid]				2.1875	2.2725	protruded deeper in the growth medium
